These are literature values, as cited in patent publication US20090197952A1, “Glyceride Esters for the Treatment of Diseases Associated with Reduced Neuronal Metabolism of Glucose” (priority 2006, published 2009).

One series concerns patients. As to conditions: infused at 8-9.3 g/Kg body weight/day to affect hyperketonemia.
In series [1] the test system is rats. The settings on record: rat, in vivo.
Series [2] deals with rats. The settings on record: infusion.
In a further series the test system is mice. As to conditions: direct administration.
The subject of the next series is rat. The settings on record: rat feeding studies.

For bisacetoacetin, the detrimental side effects result in the series on patients is “No detrimental side effects”. Take `CC(=O)CC(=O)OCC(COC(=O)CC(C)=O)OC(=O)CC(C)=O` [triacetoacetin]: in the series on rats [1], the tolerated amount is given as 10 g/Kg body weight/day. For `CC(=O)CC(=O)OCC(O)CO` (stereo not drawn) [monoacetoacetin], in the series with rats [2] (elevated levels of ketone bodies achieved), the detrimental side effects result is on record as “without any detrimental side effects”. Also, the “rate at which it could be safely infused” value with rats [2] (level equivalent to 2/3 of the rat's daily caloric requirement) is “at least 50 g/kg body weight/day”. As to `CC(O)CC(=O)O` (stereo not drawn) [3-hydroxybutyrate], in the series with mice, the protection against neurotoxin entry was “can protect mice against a neurotoxin”. On to `CC(O)CC(=O)OCC(COC(=O)CC(C)O)OC(=O)CC(C)O` (racemic) [DL-tris-(3-hydroxybutyrl)-glycerol], for which, in the series with rat, the acute toxicity result is “not acutely toxic” and the chronic toxicity entry was “did not show any indication of chronic toxicity”. On to `CC(O)CC(=O)OCC(O)CO` (racemic) [1-(DL-3-hydroxybutyryl)-glycerol], for which, in the series with rat, the acute toxicity entry is on record as “not acutely toxic” and the chronic toxicity entry is given as “did not show any indication of chronic toxicity”.
